± gives the uncertainty stated by the source.
Assay: xn = mol fraction of the nth substance listed

CCCCCC + CCO
298.15 K
Settings	viscosity [mPa·s]
100 kPa, x1 = 0.0432	0.9721 ± 0.012
100 kPa, x1 = 0.1024	0.848 ± 0.011
100 kPa, x1 = 0.1981	0.702 ± 0.0089
100 kPa, x1 = 0.3027	0.5885 ± 0.0074
100 kPa, x1 = 0.4066	0.5026 ± 0.0063
100 kPa, x1 = 0.5031	0.439 ± 0.0055
100 kPa, x1 = 0.5999	0.3881 ± 0.0049
100 kPa, x1 = 0.7007	0.3479 ± 0.0044
100 kPa, x1 = 0.8026	0.3191 ± 0.004
100 kPa, x1 = 0.8955	0.3025 ± 0.0038
100 kPa, x1 = 0.971	0.2965 ± 0.0038
101 kPa, x1 = 0.0149	1.046 ± 0.027
101 kPa, x2 = 0.1035	0.3031 ± 0.008
101 kPa, x2 = 0.1286	0.306 ± 0.008
101 kPa, x2 = 0.2846	0.3322 ± 0.0087
101 kPa, x2 = 0.3428	0.3666 ± 0.0096
101 kPa, x2 = 0.4373	0.4133 ± 0.011
101 kPa, x2 = 0.4727	0.4249 ± 0.011
101 kPa, x2 = 0.533	0.4651 ± 0.012
101 kPa, x2 = 0.5802	0.4994 ± 0.013
101 kPa, x2 = 0.6757	0.5717 ± 0.015
101 kPa, x2 = 0.7394	0.6511 ± 0.017
101 kPa, x2 = 0.8689	0.8184 ± 0.021
101 kPa, x2 = 0.8995	0.8715 ± 0.023
101 kPa, x2 = 0.9793	1.033 ± 0.027
101.33 kPa, x2 = 0.0569	0.315 ± 0.004
101.33 kPa, x2 = 0.1499	0.325 ± 0.004
101.33 kPa, x2 = 0.2731	0.363 ± 0.005
101.33 kPa, x2 = 0.439	0.438 ± 0.006
101.33 kPa, x2 = 0.5984	0.528 ± 0.007
101.33 kPa, x2 = 0.7241	0.632 ± 0.008
101.33 kPa, x2 = 0.8282	0.757 ± 0.01
101.33 kPa, x2 = 0.9076	0.895 ± 0.011
101.33 kPa, x2 = 0.9673	1.022 ± 0.013

C=CC(=O)OC + CCCO
viscosity [mPa·s], 101.33 kPa
Settings	308.15 K	318.15 K
x1 = 0.0501	1.354 ± 0.009	1.107 ± 0.007
x1 = 0.1464	1.081 ± 0.007	0.916 ± 0.006
x1 = 0.2331	0.9 ± 0.006	0.782 ± 0.006
x1 = 0.3469	0.727 ± 0.005	0.648 ± 0.005
x1 = 0.4436	0.622 ± 0.005	0.561 ± 0.004
x1 = 0.5011	0.572 ± 0.005	0.519 ± 0.004
x1 = 0.5436	0.541 ± 0.004	0.492 ± 0.004
x1 = 0.6429	0.483 ± 0.004	0.439 ± 0.004
x1 = 0.7442	0.441 ± 0.004	0.397 ± 0.004
x1 = 0.8449	0.413 ± 0.004	0.365 ± 0.003
x1 = 0.9424	0.396 ± 0.004	0.343 ± 0.003

CCCCCC + CCCCCCC
Settings	viscosity [mPa·s]
298 K, 101.33 kPa, x2 = 0.1005	0.3132 ± 0.0045
298 K, 101.33 kPa, x2 = 0.1957	0.3202 ± 0.0046
298 K, 101.33 kPa, x2 = 0.3837	0.3365 ± 0.0048
298 K, 101.33 kPa, x2 = 0.508	0.3471 ± 0.0049
298 K, 101.33 kPa, x2 = 0.6023	0.3554 ± 0.005
298 K, 101.33 kPa, x2 = 0.7154	0.3649 ± 0.0051
298 K, 101.33 kPa, x2 = 0.8009	0.3727 ± 0.0052
298 K, 101.33 kPa, x2 = 0.8944	0.3801 ± 0.0053
298.15 K, 101 kPa, x2 = 0.2069	0.3145 ± 0.004
298.15 K, 101 kPa, x2 = 0.2091	0.315 ± 0.004
298.15 K, 101 kPa, x2 = 0.2351	0.316 ± 0.004
298.15 K, 101 kPa, x2 = 0.2355	0.316 ± 0.004
298.15 K, 101 kPa, x2 = 0.2614	0.317 ± 0.004
298.15 K, 101 kPa, x2 = 0.2637	0.317 ± 0.004
298.15 K, 101 kPa, x2 = 0.2921	0.319 ± 0.0041
298.15 K, 101 kPa, x2 = 0.2929	0.319 ± 0.0041
298.15 K, 101 kPa, x2 = 0.3129	0.32 ± 0.0041
298.15 K, 101 kPa, x2 = 0.3245	0.3205 ± 0.0041
298.15 K, 101 kPa, x2 = 0.3582	0.323 ± 0.0041
298.15 K, 101 kPa, x2 = 0.3665	0.3245 ± 0.0041
298.15 K, 101 kPa, x2 = 0.3904	0.325 ± 0.0041
298.15 K, 101 kPa, x2 = 0.3907	0.325 ± 0.0041
298.15 K, 101 kPa, x2 = 0.4267	0.3275 ± 0.0042
298.15 K, 101 kPa, x2 = 0.4279	0.328 ± 0.0042
298.15 K, 101 kPa, x2 = 0.4662	0.331 ± 0.0042
298.15 K, 101 kPa, x2 = 0.4687	0.331 ± 0.0042
298.15 K, 101 kPa, x2 = 0.5072	0.3345 ± 0.0042
298.15 K, 101 kPa, x2 = 0.5084	0.3345 ± 0.0042
298.15 K, 101 kPa, x2 = 0.5516	0.339 ± 0.0043
298.15 K, 101 kPa, x2 = 0.5526	0.338 ± 0.0043
298.15 K, 101 kPa, x2 = 0.5986	0.344 ± 0.0043
298.15 K, 101 kPa, x2 = 0.5994	0.344 ± 0.0043
298.15 K, 101 kPa, x2 = 0.6496	0.35 ± 0.0044
298.15 K, 101 kPa, x2 = 0.6507	0.35 ± 0.0044
298.15 K, 101 kPa, x2 = 0.6856	0.3545 ± 0.0045
298.15 K, 101 kPa, x2 = 0.6881	0.355 ± 0.0045
298.15 K, 101 kPa, x2 = 0.7266	0.3595 ± 0.0045
298.15 K, 101 kPa, x2 = 0.728	0.36 ± 0.0045
298.15 K, 101.33 kPa, x1 = 0.1059	0.3792 ± 0.0058
298.15 K, 101.33 kPa, x1 = 0.2067	0.3658 ± 0.0056
298.15 K, 101.33 kPa, x1 = 0.302	0.358 ± 0.0056
298.15 K, 101.33 kPa, x1 = 0.406	0.3485 ± 0.0055
298.15 K, 101.33 kPa, x1 = 0.5051	0.3409 ± 0.0054
298.15 K, 101.33 kPa, x1 = 0.6064	0.3305 ± 0.0053
298.15 K, 101.33 kPa, x1 = 0.704	0.3227 ± 0.0052
298.15 K, 101.33 kPa, x1 = 0.8008	0.3123 ± 0.0051
298.15 K, 101.33 kPa, x1 = 0.8993	0.3075 ± 0.005

C=CC(=O)OCCCC + CC#N
viscosity [mPa·s], 100 kPa
Settings	293.15 K	298.15 K	303.15 K	308.15 K	313.15 K	318.15 K
x2 = 0.061	0.8625 ± 0.011	0.8036 ± 0.011	0.7492 ± 0.011	0.6997 ± 0.011	0.6541 ± 0.011	0.611 ± 0.011
x2 = 0.1168	0.8292 ± 0.011	0.7725 ± 0.011	0.7202 ± 0.011	0.6725 ± 0.011	0.6285 ± 0.011	0.587 ± 0.011
x2 = 0.1832	0.7901 ± 0.011	0.7361 ± 0.011	0.6864 ± 0.011	0.641 ± 0.011	0.5992 ± 0.011	0.5596 ± 0.011
x2 = 0.2571	0.7473 ± 0.011	0.6964 ± 0.011	0.6497 ± 0.011	0.607 ± 0.011	0.5677 ± 0.011	0.5304 ± 0.011
x2 = 0.3094	0.7174 ± 0.011	0.6687 ± 0.011	0.6241 ± 0.011	0.5834 ± 0.011	0.5459 ± 0.011	0.5103 ± 0.011
x2 = 0.3825	0.6761 ± 0.011	0.6306 ± 0.011	0.589 ± 0.011	0.551 ± 0.011	0.516 ± 0.011	0.4829 ± 0.01
x2 = 0.4563	0.6351 ± 0.011	0.5928 ± 0.011	0.5542 ± 0.011	0.519 ± 0.011	0.4866 ± 0.01	0.4558 ± 0.01
x2 = 0.5282	0.5958 ± 0.011	0.5566 ± 0.011	0.521 ± 0.011	0.4885 ± 0.01	0.4585 ± 0.01	0.4301 ± 0.01
x2 = 0.5779	0.569 ± 0.011	0.532 ± 0.011	0.4985 ± 0.01	0.4678 ± 0.01	0.4395 ± 0.01	0.4126 ± 0.01
x2 = 0.6483	0.5319 ± 0.011	0.4979 ± 0.01	0.4672 ± 0.01	0.4391 ± 0.01	0.4132 ± 0.01	0.3886 ± 0.01
x2 = 0.7299	0.49 ± 0.01	0.4596 ± 0.01	0.4322 ± 0.01	0.4071 ± 0.01	0.384 ± 0.01	0.362 ± 0.01
x2 = 0.8143	0.4484 ± 0.01	0.4216 ± 0.01	0.3977 ± 0.01	0.3758 ± 0.01	0.3556 ± 0.01	0.3364 ± 0.01
x2 = 0.9182	0.3998 ± 0.01	0.3778 ± 0.01	0.3584 ± 0.01	0.3405 ± 0.01	0.3241 ± 0.01	0.3086 ± 0.01

CCOC(=O)CC + CCCCCCC
viscosity [mPa·s], 101.3 kPa
Settings	308.15 K	318.15 K
x1 = 0.0514	0.356 ± 0.004	0.325 ± 0.003
x1 = 0.0967	0.36 ± 0.004	0.329 ± 0.003
x1 = 0.2165	0.369 ± 0.004	0.341 ± 0.003
x1 = 0.3027	0.376 ± 0.004	0.35 ± 0.004
x1 = 0.4024	0.386 ± 0.004	0.36 ± 0.004
x1 = 0.5033	0.396 ± 0.004	0.372 ± 0.004
x1 = 0.588	0.406 ± 0.004	0.383 ± 0.004
x1 = 0.7003	0.421 ± 0.004	0.397 ± 0.004
x1 = 0.7994	0.435 ± 0.004	0.408 ± 0.004
x1 = 0.9003	0.45 ± 0.004	0.421 ± 0.004
x1 = 0.9484	0.458 ± 0.004	0.428 ± 0.004
